In PMC3849439, “Peptides Corresponding to the Predicted Heptad Repeat 2 Domain of the Feline Coronavirus Spike Protein Are Potent Inhibitors of Viral Infection” (PLoS ONE, 2013):
“Also recorded” adds a separate entry of the source.

Key:
[1] = tested on: Feline coronavirus type II NTU156 strain; settings: for Inhibition of viral titer (%): highest concentration tested 20 μM, NTU156 MOI 0.1, fcwf-4 cells, triplicate wells; for IC50: NTU156 at MOI 0.1 preincubated with peptide 1 h, then on fcwf-4 cells 1 h, supernatant collected 48 h postinfection and titrated, CPE at 72 h, IC50 by interpolation
fcwf-4 cells = assay: MTT cytotoxicity assay; settings: 72 h at 37°C, 6.25-200 μM, absorbance 570 nm, triplicate
[2] = tested on: Feline coronavirus type II NTU156 strain; assay: Combination of FP5 with human IFN-α, viral titer by plaque reduction assay; type: cell-based; settings: for Viral titer reduction, agent alone: supernatant collected after 48 h, triplicate

CC[C@H](C)[C@H](NC(=O)[C@H](CCC(=O)O)NC(=O)CNC(=O)[C@@H](NC(=O)[C@H](CC(C)C)NC(=O)[C@H](CC(N)=O)NC(=O)[C@H](CC(C)C)NC(=O)[C@H](Cc1ccc(O)cc1)NC(=O)[C@@H](NC(=O)[C@H](C)NC(=O)[C@H](CC(N)=O)NC(=O)[C@@H](N)Cc1ccccc1)[C@@H](C)O)[C@@H](C)O)C(=O)N[C@@H](CC(=O)O)C(=O)N[C@@H](CC(=O)O)C(=O)N[C@@H](CC(C)C)C(=O)N[C@@H](CCC(=O)O)C(=O)N[C@@H](Cc1ccccc1)C(=O)N[C@@H](CCCNC(=N)N)C(=O)N[C@@H](CO)C(=O)N[C@@H](CCC(=O)O)C(=O)N[C@@H](CCCCN)C(=O)N[C@@H](CC(C)C)C(=O)O [FP1]
Inhibition of viral titer (%) [1]: 27% | CC50 (fcwf-4 cells): ≧200 μM

CC[C@H](C)[C@H](NC(=O)[C@H](CCC(=O)O)NC(=O)CNC(=O)[C@@H](NC(=O)[C@H](CC(C)C)NC(=O)[C@H](CC(N)=O)NC(=O)[C@H](CC(C)C)NC(=O)[C@H](Cc1ccc(O)cc1)NC(=O)[C@@H](NC(=O)[C@H](C)NC(=O)[C@H](CC(N)=O)NC(=O)[C@@H](N)Cc1ccccc1)[C@@H](C)O)[C@@H](C)O)C(=O)N[C@@H](CC(=O)O)C(=O)N[C@@H](CC(=O)O)C(=O)N[C@@H](CC(C)C)C(=O)N[C@@H](CCC(=O)O)C(=O)N[C@@H](Cc1ccccc1)C(=O)N[C@@H](CCCNC(=N)N)C(=O)N[C@@H](CO)C(=O)N[C@@H](CCC(=O)O)C(=O)N[C@@H](CCCCN)C(=O)N[C@@H](CC(C)C)C(=O)N[C@@H](Cc1c[nH]cn1)C(=O)N[C@@H](CC(N)=O)C(=O)N[C@H](C(=O)N[C@H](C(=O)N[C@H](C(=O)N[C@@H](CCC(=O)O)C(=O)N[C@@H](CC(C)C)C(=O)O)C(C)C)[C@@H](C)O)[C@@H](C)O [FP2]
Inhibition of viral titer (%) [1]: 29% | CC50 (fcwf-4 cells): ≧200 μM

CC[C@H](C)[C@H](NC(=O)[C@H](CC(N)=O)NC(=O)[C@H](CC(=O)O)NC(=O)[C@@H](NC(=O)[C@H](CC(C)C)NC(=O)[C@@H](NC(=O)[C@H](C)NC(=O)[C@H](CC(C)C)NC(=O)[C@H](CCC(=O)O)NC(=O)[C@@H](NC(=O)[C@@H](NC(=O)[C@@H](NC(=O)[C@H](CC(N)=O)NC(=O)[C@H](Cc1c[nH]cn1)NC(=O)[C@H](CC(C)C)NC(=O)[C@H](CCCCN)NC(=O)[C@H](CCC(=O)O)NC(=O)[C@H](CO)NC(=O)[C@H](CCCNC(=N)N)NC(=O)[C@H](Cc1ccccc1)NC(=O)[C@H](CCC(=O)O)NC(=O)[C@H](CC(C)C)NC(=O)[C@H](CC(=O)O)NC(=O)[C@H](CC(=O)O)NC(=O)[C@@H](NC(=O)[C@H](CCC(=O)O)NC(=O)CNC(=O)[C@@H](NC(=O)[C@H](CC(C)C)NC(=O)[C@H](CC(N)=O)NC(=O)[C@H](CC(C)C)NC(=O)[C@H](Cc1ccc(O)cc1)NC(=O)[C@@H](NC(=O)[C@H](C)NC(=O)[C@H](CC(N)=O)NC(=O)[C@@H](N)Cc1ccccc1)[C@@H](C)O)[C@@H](C)O)[C@@H](C)CC)[C@@H](C)O)[C@@H](C)O)C(C)C)[C@@H](C)CC)[C@@H](C)CC)C(=O)O [FP3]
IC50 [1]: 14200 nM | Inhibition of viral titer (%) [1]: 72% | CC50 (fcwf-4 cells): ≧200 μM

CC[C@H](C)[C@H](NC(=O)[C@H](C)NC(=O)[C@H](CC(C)C)NC(=O)[C@H](CCC(=O)O)NC(=O)[C@@H](NC(=O)[C@@H](NC(=O)[C@@H](NC(=O)[C@H](CC(N)=O)NC(=O)[C@H](Cc1c[nH]cn1)NC(=O)[C@H](CC(C)C)NC(=O)[C@H](CCCCN)NC(=O)[C@H](CCC(=O)O)NC(=O)[C@H](CO)NC(=O)[C@H](CCCNC(=N)N)NC(=O)[C@H](Cc1ccccc1)NC(=O)[C@H](CCC(=O)O)NC(=O)[C@H](CC(C)C)NC(=O)[C@H](CC(=O)O)NC(=O)[C@H](CC(=O)O)NC(=O)[C@@H](NC(=O)[C@H](CCC(=O)O)NC(=O)CNC(=O)[C@@H](NC(=O)[C@H](CC(C)C)NC(=O)[C@H](CC(N)=O)NC(=O)[C@H](CC(C)C)NC(=O)[C@H](Cc1ccc(O)cc1)NC(=O)[C@@H](NC(=O)[C@H](C)NC(=O)[C@H](CC(N)=O)NC(=O)[C@@H](N)Cc1ccccc1)[C@@H](C)O)[C@@H](C)O)[C@@H](C)CC)[C@@H](C)O)[C@@H](C)O)C(C)C)C(=O)N[C@@H](CC(C)C)C(=O)N[C@H](C(=O)N[C@@H](CC(=O)O)C(=O)N[C@@H](CC(N)=O)C(=O)N[C@H](C(=O)N[C@@H](CC(N)=O)C(=O)N[C@@H](CC(N)=O)C(=O)N[C@H](C(=O)N[C@@H](CC(C)C)C(=O)N[C@H](C(=O)N[C@@H](CC(N)=O)C(=O)N[C@@H](CC(C)C)C(=O)O)C(C)C)[C@@H](C)O)[C@@H](C)CC)[C@@H](C)CC [FP4]
IC50 [1]: 1800 nM | Inhibition of viral titer (%) [1]: 93% | CC50 (fcwf-4 cells): ≧200 μM

CC[C@H](C)[C@H](NC(=O)[C@H](C)NC(=O)[C@H](CC(C)C)NC(=O)[C@H](CCC(=O)O)NC(=O)[C@@H](NC(=O)[C@@H](NC(=O)[C@@H](NC(=O)[C@H](CC(N)=O)NC(=O)[C@H](Cc1c[nH]cn1)NC(=O)[C@H](CC(C)C)NC(=O)[C@H](CCCCN)NC(=O)[C@H](CCC(=O)O)NC(=O)[C@H](CO)NC(=O)[C@H](CCCNC(=N)N)NC(=O)[C@H](Cc1ccccc1)NC(=O)[C@H](CCC(=O)O)NC(=O)[C@H](CC(C)C)NC(=O)[C@H](CC(=O)O)NC(=O)[C@H](CC(=O)O)NC(=O)[C@@H](NC(=O)[C@H](CCC(=O)O)NC(=O)CNC(=O)[C@@H](NC(=O)[C@H](CC(C)C)NC(=O)[C@H](CC(N)=O)NC(=O)[C@H](CC(C)C)NC(=O)[C@H](Cc1ccc(O)cc1)NC(=O)[C@@H](NC(=O)[C@H](C)NC(=O)[C@H](CC(N)=O)NC(=O)[C@@H](N)Cc1ccccc1)[C@@H](C)O)[C@@H](C)O)[C@@H](C)CC)[C@@H](C)O)[C@@H](C)O)C(C)C)C(=O)N[C@@H](CC(C)C)C(=O)N[C@H](C(=O)N[C@@H](CC(=O)O)C(=O)N[C@@H](CC(N)=O)C(=O)N[C@H](C(=O)N[C@@H](CC(N)=O)C(=O)N[C@@H](CC(N)=O)C(=O)N[C@H](C(=O)N[C@@H](CC(C)C)C(=O)N[C@H](C(=O)N[C@@H](CC(N)=O)C(=O)N[C@@H](CC(C)C)C(=O)N[C@@H](CCC(=O)O)C(=O)N[C@@H](Cc1c[nH]c2ccccc12)C(=O)N[C@@H](CC(C)C)C(=O)N[C@@H](CC(N)=O)C(=O)N[C@@H](CCCNC(=N)N)C(=O)N[C@H](C(=O)N[C@@H](CCC(=O)O)C(=O)O)[C@@H](C)CC)C(C)C)[C@@H](C)O)[C@@H](C)CC)[C@@H](C)CC [FP5]
Viral titer reduction, combination ([2]; 20 μM FP5 with 10 to 1000 IU IFN-α, or 10 μM FP5 with 1000 IU IFN-α, NTU156 MOI 0.1, fcwf-4 cells, 48 h): up to 4.08 LogPFU/ml | Inhibitory effect of the combination (in words) ([2]; 20 μM FP5 with 10 to 1000 IU IFN-α, or 10 μM FP5 with 1000 IU IFN-α, two-way analysis of variance P < 0.05): complete inhibitory effect; also recorded: synergetic effects | Inhibitory effect of the combination (in words) ([2]; 10 units of IFN-α combined with 20 μM FP5): complete inhibition | Viral titer reduction, agent alone ([2]; FP5 20 μM alone, NTU156 MOI 0.1, fcwf-4 cells): 1.81 LogPFU/ml | IC50 [1]: 1330 nM | CC50 (fcwf-4 cells): ≧200 μM

IFN-α
Viral titer reduction, agent alone ([2]; IFN-α 1000 IU alone, preincubated with cells 24 h, NTU156 MOI 0.1, fcwf-4 cells): 1.46 LogPFU/ml
